Results from ChEMBL document CHEMBL1130609, “2-Pyridinyl-3-(4-methylsulfonyl)phenylpyridines: selective and orally active cyclooxygenase-2 inhibitors” (Bioorg Med Chem Lett, 1998).

What was measured:
[1] = system: Rattus norvegicus; assay: Efficacy in rat pyresis assay upon oral administration; assay type: functional
[2] = Compound was evaluated for plasma concentration in rats when administered at 20 mg/kg in methocel at 2 hr; assay type: ADME, organism-based; design: dose 20 mg/kg; settings: rat, read-out: Cmax
[3] = system: Rattus norvegicus; assay: Efficacy in rat paw edema assay upon oral administration.; assay type: functional
[4] = biological target: Prostaglandin G/H synthase 1 (Homo sapiens, UniProt P23219); assay: Inhibition of Prostaglandin G/H synthase 1 was measured by the inhibition of PGE-2 produced by microsomes from U937 cells at subsaturating arachidonic acid conc.; assay type: cell-based, U-937
Chain of Prostaglandin G/H synthase 1 (P23219 whole entry): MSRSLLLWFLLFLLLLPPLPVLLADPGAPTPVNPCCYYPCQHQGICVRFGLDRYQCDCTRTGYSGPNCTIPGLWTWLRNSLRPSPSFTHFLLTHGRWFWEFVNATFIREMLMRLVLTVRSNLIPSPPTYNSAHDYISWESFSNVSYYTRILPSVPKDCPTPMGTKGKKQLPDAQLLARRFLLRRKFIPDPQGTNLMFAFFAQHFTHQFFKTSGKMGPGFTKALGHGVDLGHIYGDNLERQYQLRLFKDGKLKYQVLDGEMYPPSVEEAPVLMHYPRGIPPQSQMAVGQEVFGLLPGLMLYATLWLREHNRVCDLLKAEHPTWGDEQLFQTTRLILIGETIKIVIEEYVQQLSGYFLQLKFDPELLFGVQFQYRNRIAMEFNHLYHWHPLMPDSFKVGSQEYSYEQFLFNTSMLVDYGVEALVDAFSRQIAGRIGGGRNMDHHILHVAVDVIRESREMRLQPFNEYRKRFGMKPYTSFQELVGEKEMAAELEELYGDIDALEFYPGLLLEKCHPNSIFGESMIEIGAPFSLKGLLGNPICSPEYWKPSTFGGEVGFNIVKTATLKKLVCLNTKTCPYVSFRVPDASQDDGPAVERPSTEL

[5] = system: Rattus norvegicus; assay: Compound was evaluated for efficacy in rat paw edema assay upon oral administration; assay type: functional
[6] = system: Rattus norvegicus; assay: In vivo inhibitory dose in carrageenan-induced hyperalgesia in rats; assay type: functional; settings: read-out: ID50 (the source's name)
[7] = system: Rattus norvegicus; assay: In vivo inhibitory dose in adjuvant-induced arthritis in rats; assay type: functional
[8] = biological target: T1, Prostaglandin G/H synthase 2 (Homo sapiens, UniProt P35354); assay: In vitro inhibition of PGE-2 produced by arachidonic acid-stimulated CHO cells stably expressing human Prostaglandin G/H synthase 2
T1 sequence (P35354 whole entry): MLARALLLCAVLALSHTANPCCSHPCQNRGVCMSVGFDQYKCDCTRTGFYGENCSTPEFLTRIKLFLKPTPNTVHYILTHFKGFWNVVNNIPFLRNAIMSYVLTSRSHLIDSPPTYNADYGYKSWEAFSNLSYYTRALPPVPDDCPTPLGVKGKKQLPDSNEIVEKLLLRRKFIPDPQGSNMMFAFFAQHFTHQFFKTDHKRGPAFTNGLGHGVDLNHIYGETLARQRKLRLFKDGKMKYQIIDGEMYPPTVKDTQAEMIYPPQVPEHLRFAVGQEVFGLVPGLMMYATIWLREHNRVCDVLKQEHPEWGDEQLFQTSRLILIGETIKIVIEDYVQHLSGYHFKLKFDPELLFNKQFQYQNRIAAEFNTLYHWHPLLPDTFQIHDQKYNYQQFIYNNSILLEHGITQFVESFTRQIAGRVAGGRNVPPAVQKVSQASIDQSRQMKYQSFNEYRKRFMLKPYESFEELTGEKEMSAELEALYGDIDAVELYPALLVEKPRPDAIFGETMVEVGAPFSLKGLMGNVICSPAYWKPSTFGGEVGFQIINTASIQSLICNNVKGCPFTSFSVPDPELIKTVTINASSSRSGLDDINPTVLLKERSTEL

[9] = Compound was evaluated for plasma concentration in rats when administered at 20 mg/kg in methocel at 0.5 hr; assay type: ADME, organism-based; design: dose 20 mg/kg; settings: rat, read-out: Cmax
[10] = biological target: T1, Prostaglandin G/H synthase 2
Description: Inhibition of Prostaglandin G/H synthase 2 was measured by the inhibition of PGE-2 produced by lipopolysaccharide-challenged HWB

[11] = system: Rattus norvegicus; assay: In vivo potency at 20 mg/kg in the rat paw edema assay; assay type: functional
[12] = Compound was evaluated for plasma concentration in rats when administered at 20 mg/kg in methocel at 1 hr; assay type: ADME, organism-based; design: dose 20 mg/kg; settings: rat, read-out: Cmax
[13] = system: Rattus norvegicus; assay: In vivo potency at 10 mg/kg in the rat paw edema assay; assay type: functional

CS(=O)(=O)c1ccc(-c2cc(C(F)(F)F)cnc2-c2cccnc2)cc1
ED50 [1]: 1.4 mg/kg | concentration at 2 h [2]: 24 µM | ED50 [3]: 1.7 mg/kg | IC50 [4]: 31000 nM

COc1ccc2c(c1)c(CC(=O)O)c(C)n2C(=O)c1ccc(Cl)cc1 [INDOMETHACIN]
ED50 [5]: 2 mg/kg | ED50 [1]: 1.1 mg/kg | ED50 [6]: 1.5 mg/kg | ID50 [7]: 0.2 mg kg-1 day-1 b.i.d.

CS(=O)(=O)c1ccc(-c2cc(Br)sc2-c2ccc(F)cc2)cc1 [DUP-697]
ED50 [3]: 1.3 mg/kg

CS(=O)(=O)c1ccc(-c2cc(Cl)cnc2-c2ccc(C3CC3)nc2)cc1
ED50 [1]: 4.9 mg/kg | concentration at 2 h [2]: 9 µM | ED50 [3]: 2 mg/kg | IC50 [4]: 6000 nM | IC50 [8]: 16 nM

CCc1ccc(-c2ncc(Cl)cc2-c2ccc(S(C)(=O)=O)cc2)cn1
concentration at 0.5 h [9]: 9 µM | ED50 [1]: 2.6 mg/kg | ED50 [3]: 1.6 mg/kg | IC50 [4]: 13000 nM

CS(=O)(=O)c1ccc(-c2cc(Cl)cnc2-c2ccccn2)cc1
IC50 [4]: 63000 nM | IC50 [10]: 5800 nM | IC50 [8]: 68 nM

CS(=O)(=O)c1ccc(-c2cccnc2-c2cccnc2)cc1
IC50 [4]: > 100000 nM | IC50 [10]: > 33000 nM | IC50 [8]: 610 nM

Cc1ncccc1-c1ncc(Cl)cc1-c1ccc(S(C)(=O)=O)cc1
IC50 [4]: 45000 nM | IC50 [10]: 2600 nM | IC50 [8]: 1330 nM

CS(=O)(=O)c1ccc(-c2cccnc2-c2ccccc2)cc1
concentration at 0.5 h [9]: 40 µM | ED50 [3]: > 10 mg/kg | IC50 [4]: 20000 nM

COc1cc(-c2ccc(S(C)(=O)=O)cc2)c(-c2ccc(F)cc2)c(C(F)(F)F)n1
inhibition in vivo at 20 mg/kg [11]: 12%

CS(=O)(=O)c1ccc(-c2cc(Cl)cnc2-c2cccnc2)cc1
ED50 [1]: 0.8 mg/kg | concentration at 2 h [2]: 52 µM | ED50 [3]: 2.3 mg/kg | IC50 [4]: 19000 nM | IC50 [10]: 900 nM | IC50 [8]: 34 nM

Cc1ccncc1-c1ncc(Cl)cc1-c1ccc(S(C)(=O)=O)cc1
IC50 [4]: > 100000 nM | IC50 [10]: 2700 nM | IC50 [8]: 830 nM

Cc1ccc(-c2ncc(Cl)cc2-c2ccc(S(C)(=O)=O)cc2)cn1 [ETORICOXIB]
concentration at 1 h [12]: 30 µM | ED50 [1]: 0.5 mg/kg | ED50 [3]: 0.6 mg/kg | IC50 [4]: 12000 nM

COc1nc(-c2ccc(F)cc2)c(-c2ccc(S(C)(=O)=O)cc2)cc1C#N
inhibition in vivo at 10 mg/kg [13]: 16%

Cc1cncc(-c2ncc(Cl)cc2-c2ccc(S(C)(=O)=O)cc2)c1
IC50 [4]: > 100000 nM | IC50 [10]: 3800 nM | IC50 [8]: 87 nM

Cc1ccc(-c2ncc(Cl)cc2-c2ccc(S(N)(=O)=O)cc2)cn1
IC50 [4]: 800 nM | IC50 [10]: 2400 nM | IC50 [8]: 23 nM

Cc1cnc(-c2cccnc2)c(-c2ccc(S(C)(=O)=O)cc2)c1
IC50 [4]: 59000 nM | IC50 [10]: 2100 nM | IC50 [8]: 350 nM

CS(=O)(=O)c1ccc(-c2cc(Cl)cnc2-c2ccncc2)cc1
IC50 [4]: 81000 nM
